Assay results from patent publication US9957271B2, “Substituted bicyclic aza-heterocycles and analogues as sirtuin modulators” (GlaxoSmithKline, LLC, priority 2012, dated 2018).

Tests used:
[1] = biological target: T1, SIRT1 (Homo sapiens, UniProt Q96EB6); experiment: TAMRA based mass spectrometry assay of SIRT1 activity; type: biochemical; conditions: TAMRA peptide substrate; for TAMRA EC1.5: concentration giving 150% activation of SIRT1; for Emax: percent maximum fold activation, read-out: TAMRA % Fold Act
T1 sequence (Q96EB6 1-747): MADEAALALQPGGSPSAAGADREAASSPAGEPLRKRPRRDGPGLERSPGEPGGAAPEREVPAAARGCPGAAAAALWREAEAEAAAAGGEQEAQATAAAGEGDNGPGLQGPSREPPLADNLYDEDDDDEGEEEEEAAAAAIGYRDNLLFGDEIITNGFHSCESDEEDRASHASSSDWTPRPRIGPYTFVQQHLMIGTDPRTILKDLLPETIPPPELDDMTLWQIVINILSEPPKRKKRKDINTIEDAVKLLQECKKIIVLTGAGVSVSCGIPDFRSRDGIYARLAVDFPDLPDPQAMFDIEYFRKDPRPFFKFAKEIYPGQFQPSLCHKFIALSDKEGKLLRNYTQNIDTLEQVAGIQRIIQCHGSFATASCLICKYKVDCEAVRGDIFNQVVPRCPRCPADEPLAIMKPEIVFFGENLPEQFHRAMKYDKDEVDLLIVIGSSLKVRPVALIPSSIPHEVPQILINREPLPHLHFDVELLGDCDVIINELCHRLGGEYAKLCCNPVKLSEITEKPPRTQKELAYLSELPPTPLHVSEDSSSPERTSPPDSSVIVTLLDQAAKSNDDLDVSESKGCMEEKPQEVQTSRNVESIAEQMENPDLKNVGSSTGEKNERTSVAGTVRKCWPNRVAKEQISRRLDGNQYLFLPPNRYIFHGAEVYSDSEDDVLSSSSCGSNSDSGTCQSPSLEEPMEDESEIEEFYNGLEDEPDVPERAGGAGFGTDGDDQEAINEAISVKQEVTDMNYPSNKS
How it was run: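 Deacetylation of a biotinylated, TAMRA-tagged p53-based peptide (0.5 μM) by 10 nM His-tagged SIRT1 with 120 μM βNAD+, 25 °C for 25 min, pH 8 Tris-acetate buffer, across a compound concentration range. Quenched by formic acid and read by mass spec as product peptide or OAADPR; activity relative to DMSO reactions, nicotinamide defining maximal inhibition.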

[2] = biological target: T1, SIRT1; experiment: Trp mass spectrometry assay of SIRT1 activity; type: biochemical; conditions: Trp peptide substrate; for Trp EC1.5: concentration giving 150% activation of SIRT1; for Emax: percent maximum fold activation, read-out: Trp % Fold Act
How it was run: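 Activation readout: EC1.5 (concentration raising activity 50% over control) and percent maximum activation, from mass-spec quantitation of OAADPR or deacetylated Trp peptide. Reaction: 0.5 μM acetylated Trp peptide, 120 μM βNAD+, 10 nM bacterially expressed N-His SIRT1, pH 7.5 HEPES buffer with […], 25 min at 25° C.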

With `COc1cccc(NC(=O)c2cnn3ccc(-c4ccccc4OC(F)(F)F)nc23)n1` [Compound 536] the “TAMRA EC1.5” value [1] was “A (EC1.5<1 μM)”, the Emax [1] was at least 350% and the “Trp EC1.5” value [2] was “A (EC1.5<1 μM)”. For the same compound, the Emax [2] was under 350%.
In the case of `Cc1cc(-c2ccccc2C(F)(F)F)nn2c(C(=O)Nc3ccncc3F)cnc12` [Compound 541], the “TAMRA EC1.5” value [1] is reported as “A (EC1.5<1 μM)”, the Emax [1] is reported as at least 350% and the “Trp EC1.5” value [2] is reported as “B (EC1.5 1-25 μM)”. The Emax [2] was at least 350%.
With `Cc1cc(-c2ccccc2C(F)(F)F)nn2c(C(=O)Nc3ccc(F)cn3)cnc12` [Compound 542] the “TAMRA EC1.5” value [1] was “A (EC1.5<1 μM)”, the Emax [1] was at least 350% and the “Trp EC1.5” value [2] was “B (EC1.5 1-25 μM)”. The Emax [2] was under 350%.
For `Cc1nc2c(C)cc(-c3ccccc3OC(F)(F)F)nn2c1C(=O)Nc1cccc(N2CC3(COC3)C2)n1` [Compound 545], the “TAMRA EC1.5” value [1] was “A (EC1.5<1 μM)”, the Emax [1] was at least 350% and the “Trp EC1.5” value [2] was “A (EC1.5<1 μM)”. The Emax [2] was at least 350%.
`Cc1nn2ccc(-c3ccccc3C(F)(F)F)nc2c1C(=O)Nc1cccnc1` [Compound 549] was tested, and the “TAMRA EC1.5” value [1] was “A (EC1.5<1 μM)”, the Emax [1] was at least 350% and the “Trp EC1.5” value [2] was “B (EC1.5 1-25 μM)”. It also gave an Emax [2] of at least 350%.
In the case of `COc1cccc(NC(=O)c2c(C)nn3ccc(-c4ccccc4C(F)(F)F)nc23)n1` [Compound 551, N-(6-methoxypyridin-2-yl)-2-methyl-5-(2-(trifluoromethyl)phenyl)pyrazolo[1,5-a]pyrimidine-3-carboxamide], the “TAMRA EC1.5” value [1] is reported as “A (EC1.5<1 μM)”, the Emax [1] is reported as at least 350% and the “Trp EC1.5” value [2] is reported as “A (EC1.5<1 μM)”. The Emax [2] was at least 350%.
For `Cc1nn2ccc(-c3ccccc3C(F)(F)F)nc2c1C(=O)Nc1cccc(N2CCOCC2)n1` [Compound 552], the “TAMRA EC1.5” value [1] was “A (EC1.5<1 μM)”, the Emax [1] was at least 350% and the “Trp EC1.5” value [2] was “A (EC1.5<1 μM)”. The Emax [2] was at least 350%.
With `O=C(Nc1cncc(OC[C@H](O)CO)n1)c1cnc2ccc(-c3ccccc3C(F)(F)F)nn12` [Compound 555] the “TAMRA EC1.5” value [1] was “A (EC1.5<1 μM)”, the Emax [1] was at least 350% and the “Trp EC1.5” value [2] was “A (EC1.5<1 μM)”. For the same compound, the Emax [2] was at least 350%.
In the case of `Cc1cc(NC(=O)c2cnc3ccc(-c4ccccc4C(F)(F)F)nn23)cc(OC[C@@H](O)CO)n1` [Compound 558], the “TAMRA EC1.5” value [1] is reported as “A (EC1.5<1 μM)”, the Emax [1] is reported as at least 350% and the “Trp EC1.5” value [2] is reported as “A (EC1.5<1 μM)”. It also gave an Emax [2] of at least 350%.
With `O=C(Nc1ncccn1)c1cnn2ccc(-c3ccccc3OC(F)(F)F)nc12` [Compound 559] the “TAMRA EC1.5” value [1] was “B (EC1.5 1-25 μM)”, the Emax [1] was under 350% and the “Trp EC1.5” value [2] was “B (EC1.5 1-25 μM)”. For the same compound, the Emax [2] was at least 350%.
`Cc1nc2c(C)cc(-c3ccccc3C(F)(F)F)nn2c1C(=O)NCc1ccccn1` [Compound 561] was tested, and the “TAMRA EC1.5” value [1] was “B (EC1.5 1-25 μM)”, the Emax [1] was under 350% and the “Trp EC1.5” value [2] was “B (EC1.5 1-25 μM)”. It also gave an Emax [2] of at least 350%.
With `Cc1cccc(C(=O)Nc2cnc3ccc(N4CC[C@H](F)C4)nn23)n1` [Compound 565, (S)-N-(6-(3-fluoropyrrolidin-1-yl)imidazo[1,2-b]pyridazin-3-yl)-6-methylpicolinamide] the “TAMRA EC1.5” value [1] was “B (EC1.5 1-25 μM)”, the Emax [1] was at least 350% and the “Trp EC1.5” value [2] was “B (EC1.5 1-25 μM)”. It also gave an Emax [2] of under 350%.
With `Cc1cc(C)nc(C(=O)Nc2cnc3ccc(N4CC[C@H](F)C4)nn23)c1` [Compound 566] the “TAMRA EC1.5” value [1] was “B (EC1.5 1-25 μM)”, the Emax [1] was at least 350% and the “Trp EC1.5” value [2] was “B (EC1.5 1-25 μM)”. For the same compound, the Emax [2] was under 350%.
In the case of `Cc1nn2ccc(-c3ccccc3C(F)(F)F)nc2c1NC(=O)c1cccnc1` [Compound 568], the “TAMRA EC1.5” value [1] is reported as “C (EC1.5>25 μM)”, the Emax [1] is reported as under 350% and the “Trp EC1.5” value [2] is reported as “C (EC1.5>25 μM)”. For the same compound, the Emax [2] was under 350%.
In the case of `Cc1nn2ccc(-c3ccccc3C(F)(F)F)nc2c1NC(=O)c1cnccn1` [Compound 571], the “TAMRA EC1.5” value [1] is reported as “C (EC1.5>25 μM)”, the Emax [1] is reported as under 350% and the “Trp EC1.5” value [2] is reported as “B (EC1.5 1-25 μM)”. The Emax [2] was under 350%.
For `Cc1nn2ccc(-c3ccccc3C(F)(F)F)nc2c1NC(=O)c1ccncn1` [Compound 572], the “TAMRA EC1.5” value [1] was “C (EC1.5>25 μM)”, the Emax [1] was under 350% and the “Trp EC1.5” value [2] was “C (EC1.5>25 μM)”. For the same compound, the Emax [2] was under 350%.
